pIC50: −log10 of the molar value. Values after ≈ are worked out from the molar mass of the structure shown. “Also recorded” adds a separate entry of the source.
Key:
NQ01 cells = assay: Combination index at IC50 with other anti-cancer agents in NQ01 cells; assay type: cell-based, human
physchem [1] = assay: physchem
physchem [2] = assay type: physicochemical
Experimental: The stability of esters and their hydrolysis products was measured in solution. (50 μM Es5 in Tris buffer (0.1 mol dm^−3) at pH 7.4). Samples were taken at timed intervals up to 24 hours and analysed by HPLC. The detection wavelength was 330 nm. Chromatographic analysis was carried out by isocratic elution with 30:70 MeOH: Tris buffer (0.1 mol dm^−3, pH 7.4), at 1 ml min^−1. The chromatographic separation of the drug was achieved using a Hypersil ODS column with 250 mm×4.6 mm I.D.

MDA468NQ01 = assay: DNA damage, Comet assay, MDA468NQ01 cells; assay type: cell-based, human; conditions: 10 nM for 2 hrs, compared to H2O2 alone
Experimental: DNA damage was measured using the Comet assay to investigate the effect of Es5 on the comet head and tail intensities following treatment of MDA468NQ01 and the DT-diaphorase null MDA468 cell lines. […] Without wishing to be bound by any particular theory, the inventors believe that this must arise by a different mechanism such as 2×one electron reductions, rather than the 2 electron reduction that occurs with DT-diaphorase.

esterases [3] = assay: Cell lysate esterase reaction, MDA468 cell extract; assay type: in vitro ADME, human; conditions: human, MDA468 cell extract (cell lysate)
Source text: (§1) The cleavage of Es5 by esterase and cell extracts and its activation were investigated.
(§2) The degradation of Es5 by esterases from cell lysate of the two cell lines MDA NQ01 and MDA468 was investigated.

MDA468 cell extract = assay: Cell lysate esterase reaction, MDA468 cell extract; assay type: in vitro ADME, human
Source text: as §1, §2

H460 NSCLC = assay: In vivo hollow fibre assay, H460; conditions: i.p. dosing days 3-6, nude mice
Experimental: (§3) The activity of Es5 (4.65) was evaluated in vivo against 3 cancer cell lines H460, MDA-MB-468-NQ01 and MDA-MB-468-MOCK using the in vivo hollow fibre assay (HFA), with fibres implanted at both intraperitoneal (i.p.) and subcutaneous (s.c.) sites. Es5 and the control agent Doxorubicin were administered as multiple doses by intraperitoneal injection (i.p.) on days 3, 4, 5 & 6 at 0.5 mg/kg/day and 2.5 mg/kg/day respectively.
(§4) Three human tumour cell lines were selected for analysis: H460 NSCLC (from ICT) and two breast carcinoma lines MDA-MB-468-NQ01 and MDA-MB-468-MOCK (both supplied by Onco-NX). Cells were cultured in RPMI 1640 cell culture medium supplemented with 1 mM sodium pyruvate, 2 mM L-glutamine and 10% foetal bovine serum (all from Sigma), and maintained as monolayer cultures at 37° C. in a humidified 5% CO2 environment.
(§5) Female Balb/C immunodeficient nude mice aged 6-8 weeks were used (Harlan UK, Blackthorn, UK). Mice were kept in cages housed in isolation cabinets in an air-conditioned room with regular alternating cycles of light and darkness. They received Teklad 2018 diet (Harlan, Blackthorn, UK) and water ad libitum. All animal procedures were carried out under a project licence issued by the UK Home Office and UKCCCR guidelines were followed throughout.
Cells were loaded into sterilised colour-coded PVDF Spectra/Por hollow fibres (HF) (Spectrum Medical Inc, Houston, Tex., USA). Briefly cells were harvested and resuspended in cell culture medium at the required cell density. This preparation was then loaded into the HF and the ends were clamped and heat-sealed. […]
Mice were sacrificed on day 7 post-implantation, fibres removed, and cell survival analysed using a modified MTT assay, comparing absorbances seen for the treated groups with the corresponding untreated control group. […]

[4] = tested on: DT-diaphorase expressing cells; assay: Apoptosis by Annexin V binding, DT-diaphorase expressing cells; assay type: cell-based, human
Experimental: Based on the method described in Martin et al. (Journal of Experimental Medicine. 182, 1545-1556. 1995), the induction of apoptosis caused by the compounds of the present invention was determined.

porcine liver esterase = assay: Degradation by porcine liver esterase; assay type: in vitro ADME; conditions: in words
Source text: as §1

esterase = assay: Degradation by porcine liver esterase; assay type: in vitro ADME; conditions: pig, porcine liver esterase
Source text: as §1

physchem [5] = assay: physchem; remark: listed apart in the source
MDA468 = assay: IC50 by MTT assay on MDA468 cells; assay type: cell-based, human
MDA468 cells = assay: Combination index at IC50 with other anti-cancer agents in MDA468 cells; assay type: cell-based, human
MDA-MB-468-NQ01 = assay: In vivo hollow fibre assay, MDA-MB-468-NQ01; parameters: species or system mice
Experimental: as §3, §4, §5
Cells were loaded into sterilised colour-coded PVDF Spectra/Por hollow fibres (HF) (Spectrum Medical Inc, Houston, Tex., USA). Briefly cells were harvested and resuspended in cell culture medium at the required cell density. This preparation was then loaded into the HF and the ends were clamped and heat-sealed. The HF was then cut into 1.5 cm lengths which were again heat-sealed at both ends, and then transferred to 6-well plates containing medium before implantation for the in vivo experiments, or were incubated at 37° C. in a humidified 5% CO2 environment for varying times before processing using the modified MTT assay as described below.
For the in vivo experiments, under brief inhalation anaesthesia (2% isoflurane), one loaded hollow fibre for each of the cell lines was transplanted intraperitoneally or subcutaneously on the dorsal flank of each mouse and the mice were allowed to recover. Each group consisted of 6 mice and the implantation day was termed ‘day 0’.
For assessment of the therapeutic response of Es5 (4.65), on days 3, 4, 5 & 6 mice were treated with Es5 (4.65) at 0.5 mg/kg/day or Doxorubicin at 2.5 mg/kg/day.
Mice were sacrificed on day 7 post-implantation, fibres removed, and cell survival analysed using a modified MTT assay, comparing absorbances seen for the treated groups with the corresponding untreated control group. Statistical analysis was carried out using a Student's t-test.

MDA NQ01 cell extract = assay: Cell lysate esterase reaction, MDA NQ01 cell extract; assay type: in vitro ADME, human
Source text: as §1, §2

esterases [6] = assay: as above; assay type: in vitro ADME, human; conditions: human, MDA NQ01 cell line extract (cell lysate)
Source text: as §1, §2

Compound: CC(=O)OCCCC1=C(N2CC2)C(=O)C(C)=C(N2CC2)C1=O [Es5, Acetic Acid 3-(2,5-bis-aziridin-1-yl-4-methyl-3,6-dioxo-cyclohexa-1,4-dienyl)-propyl ester]
- Combination index at IC50 with ARA-C in NQ01 cells (NQ01 cells; with ARA-C): 1.22 (slight
- Combination index at IC50 with Cis-platinum in MDA NQ01 (NQ01 cells): synergy
- Combination index at IC50 with Cis-platinum in MDA NQ01 (NQ01 cells; listed as Es5 (4.65)): 0.674 (synergy)
- Combination index at IC50 with Docetaxel in NQ01 cells (NQ01 cells): additive effect
- Combination index at IC50 with Docetaxel in NQ01 cells (NQ01 cells; listed as Es5 (4.65)): 0.964 (additive)
- Combination index at IC50 with Epirubicin in NQ01 cells (NQ01 cells; with Epirubicin): 2.04 (antagonism)
- Combination Index at IC50 with Mitomycin C in NQ01 cells (NQ01 cells): additive effect
- Combination Index at IC50 with Mitomycin C in NQ01 cells (NQ01 cells; listed as Es5 (4.65)): 0.924 (additive)
- Combination index at IC50 with cobalt chloride in NQ01 cells (NQ01 cells): strong synergy
- Combination index at IC50 with cobalt chloride in NQ01 cells (NQ01 cells; listed as Es5 (4.65)): 0.54
- solubility (physchem [1]; aqueous buffer): 150 µg/mL (≈ 0.493 mM)
- solubility (physchem [1]; organic solvent or mixture): 9400 µg/mL (≈ 30.9 mM)
- more stable than other esters based on RH1 (physchem [2]): > 20 times
- half-life at 50 μM (physchem [2]; buffer, pH 7.4): > 24 h
- Comet assay head and tail intensities (DNA cross-linking) (MDA468NQ01): increased the proportion of DNA in the head
- half-life (esterases [3]): 4.67 h
- Degradation by MDA468 cell extract, rate (MDA468 cell extract; human, MDA468 cell extract (cell lysate)): (19.6 nmoles/hr/10^6 nmoles/hr/10^6 cells
- cleavage of the ester by MDA 468 cell extract (MDA468 cell extract; in words, compared with MDA468 NQ01 extract): much reduced rate; also recorded: appreciably lower rate
- cell survival compared to the untreated control, H460, i.p. site (H460 NSCLC; fibres at i.p. site, p<0.01): significant efficacy
- cell survival compared to the untreated control, H460, s.c. site (H460 NSCLC; fibres at s.c. site): significant efficacy
- time to induction of programmed cell death (Annexin V binding) [4]: ≤ 2 h
- cleavage by porcine esterase to hydrolysis product (porcine liver esterase): rapidly cleaved
- half-life (esterase): 1 min
- half-life (physchem [5]): < 24 h
- pIC50 (MDA468; Homo sapiens): 7.60
- pIC50 (MDA468; listed as Es5 (4.65)): 7.60 to 7.70
- Combination index at IC50 with ARC-C in MDA468 cells (MDA468 cells; with ARC-C): 1.2 (slight
- Combination index at IC50 with Cis-platinum in MDA468 (MDA468 cells): synergy
- Combination index at IC50 with Cis-platinum in MDA468 (MDA468 cells; listed as Es5 (4.65)): 0.567 (synergy)
- Combination index at IC50 with Docetaxel in MDA468 cells (MDA468 cells): moderately inhibitory effect
- Combination index at IC50 with Docetaxel in MDA468 cells (MDA468 cells; listed as Es5 (4.65)): 1.387 (moderately
- Combination index at IC50 with Epirubicin in MDA468 cells (MDA468 cells; with Epirubicin): 1.49 (antagonism)
- Combination Index at IC50 with Mitomycin C in MDA468 cells (MDA468 cells): slight antagonism
- Combination Index at IC50 with Mitomycin C in MDA468 cells (MDA468 cells; listed as Es5 (4.65)): 1.4 (slight
- Combination index at IC50 with cobalt chloride in MDA468 cells (MDA468 cells): strong synergy
- Combination index at IC50 with cobalt chloride in MDA468 cells (MDA468 cells; listed as Es5 (4.65)): 0.464 (strong
- cell survival compared to the untreated control, MDA-MB-468-NQ01, i.p. site (MDA-MB-468-NQ01; fibres at i.p. site, i.p. dosing days 3-6, nude mice, p<0.01): significant efficacy
- efficacy in the NQ01-expressing compared to the Mock MDA-MB-468 cell line (MDA-MB-468-NQ01; hollow fibre assay): improved efficacy
- Degradation by MDA NQ01 cell extract, rate (MDA NQ01 cell extract; human, MDA NQ01 cell line extract (cell lysate)): (11.25 nmoles/hr/10^6 nmoles/hr/10^6 cells
- cleavage of the ester by MDA468 NQ01 cell extract (MDA NQ01 cell extract; in words): rapidly cleaved
- half-life (esterases [6]; Degradation by MDA NQ01 cell extract, t1/2): 2.67 h
- half-life (esterases [6]; room temperature, degraded to the alcohol 4.61, read-out: half-life in MDA NQ01 cell line extract): ~2.67 h

Reference: US9266829B2, “Quinone compounds and their uses for the treatment of cancer” (Onco-NX Limited, priority 2012, dated 2016)
